Measured values as given in publication PMC9510126, “Hydrophobicity is a key determinant in the activity of arginine-rich cell penetrating peptides” (Scientific Reports, 2022).
Ends that are not written are not given here. * marks the point of attachment. carboxyfluorescein = carboxyfluorescein fluorophore coupled to the lysine ε-amine; DEAC = CCN(CC)c1ccc2cc(C(=O)*)c(=O)oc2c1

Assays:
[1] = RP-18 TLC hydrophobicity (1-Rf) of Ac-X-NH2 analogs; type: physicochemical; conditions: RP18 TLC, 40% acetonitrile / 60% PBS (10 mM phosphate buffer), pH 4 vs pH 8
Method: In order to assess the hydrophobicity contributed by each X group, the peptides were first analyzed by reverse phase HPLC using a C18 column, using gradients of buffer A (water/TFA 99.9:0.1) and buffer B (acetonitrile/water/TFA 89.9:10:0.1 v:v:v) (gradient of 0–40% B over 20 min). […] All d(X)TAT peptides eluted over a range of 10–35% acetonitrile. […] One caveat of this approach is that the buffer system used for peptide analysis is pH 2 (due to the presence of TFA, required to protonate residue side chains). However, pH 2 is not representative of the pH that CPPs may be exposed to when in contact with cells, either pH 7.2 outside the plasma membrane, or pH between 6.5 and 4.5 while inside acidic endosomes. In order to establish the relative hydrophobicities of d(X)TAT peptides at these pHs, we sought to use other techniques, including thin layer chromatography using C18, aluminum oxide or silica stationary phases. Unfortunately, the arginine-rich peptides could not be separated on these systems. To solve this problem, each individual X group was synthesized, using acetylated and amidated N and C-terminal positions to mimic the peptide backbone found in the d(X)TAT constructs (Fig. 1A, Figure S11). Each Ac-X-NH2 group was analyzed by HPLC and by RP18 TLC, using 40% acetonitrile and 60% PBS as mobile phase. The HPLC elutions of Ac-X-NH2 correlated with the HPLC elutions of their respective d(X)TAT counterparts (Fig. 1C). Similarly, the relative hydrophobicities of Ac-X-NH2 determined by TLC (measured as 1-Rf) at pH 4 or 8 were in good agreement with the results obtained by HPLC (Fig. 1D). […] In the case of DEAC, the protonation state of the fluorophore has, to our knowledge, not been characterized.
Hydrophobic substituents (10 µL) were developed on aluminum-backed F254 RP-18 TLC plates (EMD Millipore). Plates were cut into 6 cm × 6 cm squares and developed in 40% acetonitrile/60% 10 mM phosphate buffer first along one axis at pH 2.0, then along the second axis at pH 7.4. Peptide substituents that could not be easily identified under long-wave UV light were stained with iodine for 10–20 min. Retention factors (Rf) were calculated based on the distance traveled by each compound between the starting spotted location and the final solvent front location.

MDA-MB-231 cells [2] = assay: Staining of endosomes with LysoTracker (puncta per cell); type: cell-based, human; conditions: for lysotracker stained puncta, control agents: MDA-MB-231, LLOME 1 mM 10 min, bafilomycin 1 µM 4 h; for lysotracker-positive puncta per cell 12 h after incubation: MDA-MB-231, 1 h with peptide 1.5 μM, then 12 h in DMEM; for lysotracker stained endosomes (puncta per cell) immediately after incubation: MDA-MB-231, 1 h with peptide (X = K(Ac), WW, FFLIP at 10, 1.5, 1.5 μM), LysoTracker Green DND-26 500 nM 5 min, biological triplicates
Method: Given that hydrophobicity of the d(X)TAT peptides appears to contribute to their membrane permeation activities, we next sought to establish whether this relationship could be recapitulated with membrane models, i.e. lipid bilayers. To establish which membrane system to test, we first aimed to test whether d(X)TAT peptides generally recapitulate the mechanism of cell entry previously determined with dfTAT. For this purpose, the delivery of TMR-k5 was performed in cells transfected with dominant-negative (DN) rab7(T22N), a protein that disrupts trafficking from early endosomes to late endosomes[29],[30]. For these experiments, d(WW)TAT and d(FFLIP)TAT were chosen as two “high activity/hydrophobicity” d(X)TAT representatives. […] In this case, approximately 5% of cells remained positive for TMR-k5 nuclear staining. […] To further probe the cell penetration mechanism, the number of endosomal organelles stained by Lysotracker in cells before and after delivery was quantified. The rationale behind this assay is that lysotracker accumulates in acidified organelles, typically late endosomes and lysosomes, that endosomal membrane leakage causes an increase of endosomal pH (presumably via leakage of luminal H^+ into the cytosol), and that, consequently, endosomes rendered potentially leaky by d(X)TAT peptides will not be stained by lysotracker.
For the quantification of acidic vesicles, cells were treated with LysoTracker Green DND-26 (500 nM) for 5 min. Alternatively, cells were pretreated with L-Leu-L-Leu methyl ester (LLOME; Sigma-Aldrich) incubated at 1 mM for 10 min, or bafilomycin (Sigma-Aldrich) at 1 µM for 4 h, and then stained with LysoTracker. Likewise, cells were pretreated with d(X)TAT peptides (X = K(Ac), WW, or FFLIP at 10, 1.5, and 1.5 μM) for 1 h. Cells were then washed an stained with LysoTracker immediately or after 12 h incubation in DMEM. For all conditions, fluorescence microscopy images were acquired using the 100× objective on an Olympus IX-81 microscope. ImageJ was used to calculate the number of LysoTracker-stained puncta per cell, as well as the area of each individual puncta. This analysis was performed for 50 cells imaged for each condition and reproduced in biological triplicates.

MDA-MB-231 cells [3] = assay: Delivery of TMR-k5 probe into live cells (nuclear staining); type: cell-based, human; conditions: 1 h, biological triplicates; for TMR-k5 delivery activity (cells with TMR-k5 nuclear staining): MDA-MB-231, d(X)TAT at various concentrations + TMR-k5 20 μM, fluorescence microscopy; for d(X)TAT concentration at which delivery is achieved in a high percentage of cells: MDA-MB-231, TMR-k5 20 μM
Excerpt: To test the relative delivery efficiency of the d(X)TAT peptides, the cell lines MDA-MB-231 (epithelial-like, human breast cancer, spindle-shaped) and Neuro-2a (mouse neuroblastoma with neuronal and amoeboid stem cell morphology) were chosen. These cell lines are routinely used in cancer research, neuroscience, and toxicology. In the context of this study, we rationalized that the distinct differences in origin and characteristics between MDA-MB-231 and Neuro-2a properties may be useful to assess the generality of the results obtained. MDA-MB-231 or Neuro-2a cells were incubated with d(X)TAT peptides at various concentrations and TMR-k5 (20 μM) for 1 h. Cells were then washed, incubated with the DNA stain Hoechst and the live/dead marker SYTOX green (or SYTOX blue), and imaged by fluorescence microscopy. The localization of TMR-k5 in individual nuclei was then assessed by measuring the overlap between TMR and Hoechst signals (Fig. 2, Figure S13). […] This is because, in our experience, dfTAT and dfTAT analogs display a threshold behavior where, below a certain endosomal concentration, endosomal leakage is not achieved. In contrast above this threshold most late endosomes are permeabilized. […] Our rationale was therefore to titrate cells with different concentrations of d(X)TAT agents, monitor how many cells display cytosolic/nuclear delivery of TMR-k5, and compare the different d(X)TAT peptides.
MDA-MB-231 and Neuro2a cells obtained from ATCC (breast cancer-derived epithelial) were cultured in humidified atmosphere at 5% CO2 and 37 °C. Cells were seeded in plastic 48-well plates (Fisher) for quantitative analysis or 8-well Labtek II plates (Fisher) for qualitative imaging at 100× magnification. The cells were grown to 80–90% confluency in a 37 °C humidified atmosphere containing 5% CO2. Cells were washed three times with Leibovitz’s L15 media (L15) (Fisher). Cells were then incubated with peptide and 20 µM of the TMR-k5 pentalysine probe at 37 °C for 1 h. This was followed by washing the cells three times with L15 supplemented with heparin (Sigma-Aldrich) (1 mg/mL) and an extra L15 wash. […] Additionally, the cell permeable dye Hoechst 33342 (Thermo Fisher Scientific o) was used for nuclear staining. Cells were imaged using an EVOS FL Auto 2 inverted microscope (Thermo Fisher Scientific). The microscope is equipped with a heating chamber maintained at 37 °C. Images were acquired using bright field imaging and five fluorescence filter sets: CFP (Ex = 436 ± 10 nm, Em = 480 ± 20 nm), RFP (Ex = 560 ± 20 nm, Em = 630 ± 35 nm), FITC (Ex = 488 ± 10 nm Em = 520 ± 20 nm), DAPI (Ex = 350 ± 50 nm, Em = 460 ± 25 nm), […]. For image viewing and processing individual images, the Celleste 4.0 software (Thermo Fisher Scientific) was used. Nuclear regions in 20× images where identified using Hoechst staining (the quantification process is described in Figure S13). The intensity of these objects in the TMR channel was then determined using the Celleste software. Cells stained by the SYTOX or DRAQ dyes were considered dead and not counted as positive for delivery. Cells displaying a nuclear TMR-k5 fluorescence above the fluorescence threshold determined for TMR-k5 alone were considered positive for delivery (if excluding SYTOX or DRAQ7 stain, and if visually showing stained nucleoli for confirmation of intracellular localization). The percentage of cells positive for TMR-k5 nuclear staining was then calculated, using Hoechst-stained cells to count the total number of cells present. […] Instead, this assay quantifies the number of cells in which the nuclear fluorescence of TMR-k5 is above a detection threshold. This threshold is dependent on the microscope, imaging conditions, and the concentration of TMR-k5 used during incubation (Figure S13). The reproducibility of all the experiments was assessed by performing experiments with independent batches of cell cultures on three different days (i.e., biological triplicates). […]

Neuro-2a cells = assay: Delivery inhibition with dominant negative rab7 or CytoD; type: cell-based, mouse; conditions: for cells with TMR-k5 delivery, EGFP-DN-rab7 transfected / nuclear staining of delivered TMR-k5 in cells transfected with EGFP-DN-rab7: Neuro-2a (Fig. 4A), TMR-k5 20 μM, 1 h; for nuclear staining of delivered TMR-k5 in cells transfected with EGFP-DN-rab7: biological triplicates; for cells positive for TMR-k5 nuclear staining in the presence of cytochalasin D / delivery of TMR-k5 in the presence of cytochalasin D: cytoD 20 μM, 30 min pre-incubation and present during 1 h delivery

## CC(=O)N[C@@H](Cc1ccccc1)C(N)=O [Ac-F-NH2]
[1]
  pH dependence of TLC retention (1-Rf): independent of pH

## CCN(CC)c1ccc2cc(C(=O)NCCCCC(NC(C)=O)C(N)=O)c(=O)oc2c1 (stereo not shown) [Ac-K(DEAC)-NH2]
[1]
  pH dependence of TLC retention (1-Rf): higher hydrophobicity at pH 4 than at pH 8

## COC(=O)[C@H](CC(C)C)NC(=O)[C@@H](N)CC(C)C [LLOME, L-Leucine-L-Leucine methyl ester, reference compound]
MDA-MB-231 cells [2]
  lysotracker stained puncta, control agents: reduced the number of lysotracker stained puncta

## CO/C1=C\C(C)=C\[C@@H](C)[C@@H](O)[C@@H](C)C/C(C)=C/C=C/[C@H](OC)[C@@H]([C@@H](C)[C@@H](O)[C@H](C)[C@@]2(O)C[C@@H](O)[C@H](C)[C@@H](C(C)C)O2)OC1=O [bafilomycin, reference compound]
MDA-MB-231 cells [2]
  lysotracker stained puncta, control agents: reduced the number of lysotracker stained puncta

## d(F)TAT: disulfide dimer of CXRKKRRQRRRG with X = F (CFRKKRRQRRRG-NH2; also: disulfide dimer)
MDA-MB-231 cells [3]
  TMR-k5 delivery activity (cells with TMR-k5 nuclear staining): little to no TMR-k5 delivery is detected

## d(FFLIP)TAT: disulfide dimer of CXRKKRRQRRRG with X = FFLIP (penetration accelerating sequence, Pas)
Neuro-2a cells
  cells with TMR-k5 delivery, EGFP-DN-rab7 transfected: 20%
  nuclear staining of delivered TMR-k5 in cells transfected with EGFP-DN-rab7: markedly reduced
  cells positive for TMR-k5 nuclear staining in the presence of cytochalasin D: approximately 5%
  delivery of TMR-k5 in the presence of cytochalasin D: significantly reduced
MDA-MB-231 cells [2]
  lysotracker-positive puncta per cell 12 h after incubation: restored to control level
  lysotracker stained endosomes (puncta per cell) immediately after incubation: caused a reduction in lysotracker stained endosomes
MDA-MB-231 cells [3]
  d(X)TAT concentration at which delivery is achieved in a high percentage of cells: < 3 µM

## d(K(DEAC))TAT: disulfide dimer of CXRKKRRQRRRG with X = lysine conjugated to 7-diethylaminocoumarin-3-carboxylic acid (CK(DEAC)RKKRRQRRRG-NH2; also: disulfide dimer)
MDA-MB-231 cells [3]
  d(X)TAT concentration at which delivery is achieved in a high percentage of cells: < 3 µM

## d(K(Fl))TAT: disulfide dimer of CXRKKRRQRRRG with X = lysine conjugated to carboxyfluorescein (CK(carboxyfluorescein)RKKRRQRRRG-NH2; also: disulfide dimer)
MDA-MB-231 cells [3]
  d(X)TAT concentration at which delivery is achieved in a high percentage of cells: > 5 µM

## d(LL)TAT: disulfide dimer of CXRKKRRQRRRG with X = LL
MDA-MB-231 cells [3]
  d(X)TAT concentration at which delivery is achieved in a high percentage of cells: > 5 µM

## d(W)TAT: disulfide dimer of CXRKKRRQRRRG with X = W (CWRKKRRQRRRG-NH2; also: disulfide dimer)
MDA-MB-231 cells [3]
  TMR-k5 delivery activity (cells with TMR-k5 nuclear staining): little to no TMR-k5 delivery is detected

## d(WW)TAT: disulfide dimer of CXRKKRRQRRRG with X = WW
Neuro-2a cells
  cells with TMR-k5 delivery, EGFP-DN-rab7 transfected: 20%
  nuclear staining of delivered TMR-k5 in cells transfected with EGFP-DN-rab7: markedly reduced
  cells positive for TMR-k5 nuclear staining in the presence of cytochalasin D: approximately 5%
  delivery of TMR-k5 in the presence of cytochalasin D: significantly reduced
MDA-MB-231 cells [2]
  lysotracker-positive puncta per cell 12 h after incubation: restored to control level
  lysotracker stained endosomes (puncta per cell) immediately after incubation: caused a reduction in lysotracker stained endosomes
MDA-MB-231 cells [3]
  d(X)TAT concentration at which delivery is achieved in a high percentage of cells: < 3 µM

## d(Y)TAT: disulfide dimer of CXRKKRRQRRRG with X = Y (CYRKKRRQRRRG-NH2; also: disulfide dimer)
MDA-MB-231 cells [3]
  TMR-k5 delivery activity (cells with TMR-k5 nuclear staining): little to no TMR-k5 delivery is detected

## d(YFIL)TAT: disulfide dimer of CXRKKRRQRRRG with X = YFIL
MDA-MB-231 cells [3]
  d(X)TAT concentration at which delivery is achieved in a high percentage of cells: < 3 µM
